Reference: PubChem BioAssay AID1259407 (Chemical Carcinogenesis Research Information System (CCRIS), 2018)
Active and inactive are the calls of the source. The rule behind the calls is not given here.

Tested on: CCRIS mutagenicity, Ames/micronucleus/aberration tests
Test: CCRIS mutagenicity studies
[1] = Test System: AMES SALMONELLA TYPHIMURIUM, Strain/Indicator: TA98, Metabolic Activation: HAMSTER, LIVER, S-9, AROCLOR 1254 (10%), Method: PREINCUBATION
[2] = Test System: AMES SALMONELLA TYPHIMURIUM, Strain/Indicator: TA98, Metabolic Activation: NONE, Method: PREINCUBATION
[3] = Test System: AMES SALMONELLA TYPHIMURIUM, Strain/Indicator: TA98, Metabolic Activation: RAT, LIVER, S-9, AROCLOR 1254 (10%), Method: PREINCUBATION
[4] = Test System: AMES SALMONELLA TYPHIMURIUM, Strain/Indicator: TA100, Metabolic Activation: HAMSTER, LIVER, S-9, AROCLOR 1254 (10%), Method: PREINCUBATION
[5] = Test System: AMES SALMONELLA TYPHIMURIUM, Strain/Indicator: TA100, Metabolic Activation: NONE, Method: PREINCUBATION
[6] = Test System: AMES SALMONELLA TYPHIMURIUM, Strain/Indicator: TA100, Metabolic Activation: RAT, LIVER, S-9, AROCLOR 1254 (10%), Method: PREINCUBATION
[7] = Test System: AMES SALMONELLA TYPHIMURIUM, Strain/Indicator: TA1535, Metabolic Activation: HAMSTER, LIVER, S-9, AROCLOR 1254 (10%), Method: PREINCUBATION
[8] = Test System: AMES SALMONELLA TYPHIMURIUM, Strain/Indicator: TA1535, Metabolic Activation: NONE, Method: PREINCUBATION
[9] = Test System: AMES SALMONELLA TYPHIMURIUM, Strain/Indicator: TA1535, Metabolic Activation: RAT, LIVER, S-9, AROCLOR 1254 (10%), Method: PREINCUBATION
[10] = Test System: AMES SALMONELLA TYPHIMURIUM, Strain/Indicator: TA1537, Metabolic Activation: HAMSTER, LIVER, S-9, AROCLOR 1254 (10%), Method: PREINCUBATION
[11] = Test System: AMES SALMONELLA TYPHIMURIUM, Strain/Indicator: TA1537, Metabolic Activation: NONE, Method: PREINCUBATION
[12] = Test System: AMES SALMONELLA TYPHIMURIUM, Strain/Indicator: TA1537, Metabolic Activation: RAT, LIVER, S-9, AROCLOR 1254 (10%), Method: PREINCUBATION

[O]=[Zr]
mutagenic call [1]: inactive; negative
mutagenic call (Test System: AMES SALMONELLA TYPHIMURIUM, Strain/Indicator: TA98, Metabolic Activation: HAMSTER, LIVER, S-9, AROCLOR 1254, Method: STANDARD PLATE): inactive; negative
mutagenic call [2]: inactive; negative
mutagenic call (Test System: AMES SALMONELLA TYPHIMURIUM, Strain/Indicator: TA98, Metabolic Activation: NONE, Method: STANDARD PLATE): inactive; negative
mutagenic call [3]: inactive; negative
mutagenic call (Test System: AMES SALMONELLA TYPHIMURIUM, Strain/Indicator: TA98, Metabolic Activation: RAT, LIVER, S-9, AROCLOR 1254, Method: STANDARD PLATE): inactive; negative
mutagenic call [4]: inactive; negative
mutagenic call (Test System: AMES SALMONELLA TYPHIMURIUM, Strain/Indicator: TA100, Metabolic Activation: HAMSTER, LIVER, S-9, AROCLOR 1254, Method: STANDARD PLATE): inactive; negative
mutagenic call [5]: inactive; negative
mutagenic call (Test System: AMES SALMONELLA TYPHIMURIUM, Strain/Indicator: TA100, Metabolic Activation: NONE, Method: STANDARD PLATE): inactive; negative
mutagenic call [6]: inactive; negative
mutagenic call (Test System: AMES SALMONELLA TYPHIMURIUM, Strain/Indicator: TA100, Metabolic Activation: RAT, LIVER, S-9, AROCLOR 1254, Method: STANDARD PLATE): inactive; negative
mutagenic call [7]: inactive; negative
mutagenic call (Test System: AMES SALMONELLA TYPHIMURIUM, Strain/Indicator: TA1535, Metabolic Activation: HAMSTER, LIVER, S-9, AROCLOR 1254, Method: STANDARD PLATE): inactive; negative
mutagenic call [8]: inactive; negative
mutagenic call (Test System: AMES SALMONELLA TYPHIMURIUM, Strain/Indicator: TA1535, Metabolic Activation: NONE, Method: STANDARD PLATE): inactive; negative
mutagenic call [9]: inactive; negative
mutagenic call (Test System: AMES SALMONELLA TYPHIMURIUM, Strain/Indicator: TA1535, Metabolic Activation: RAT, LIVER, S-9, AROCLOR 1254, Method: STANDARD PLATE): inactive; negative
mutagenic call [10]: inactive; negative
mutagenic call (Test System: AMES SALMONELLA TYPHIMURIUM, Strain/Indicator: TA1537, Metabolic Activation: HAMSTER, LIVER, S-9, AROCLOR 1254, Method: STANDARD PLATE): inactive; negative
mutagenic call [11]: inactive; negative
mutagenic call (Test System: AMES SALMONELLA TYPHIMURIUM, Strain/Indicator: TA1537, Metabolic Activation: NONE, Method: STANDARD PLATE): inactive; negative
mutagenic call [12]: inactive; negative
mutagenic call (Test System: AMES SALMONELLA TYPHIMURIUM, Strain/Indicator: TA1537, Metabolic Activation: RAT, LIVER, S-9, AROCLOR 1254, Method: STANDARD PLATE): inactive; negative
mutagenic call (Test System: AMES SALMONELLA TYPHIMURIUM, Strain/Indicator: TA1538, Metabolic Activation: HAMSTER, LIVER, S-9, AROCLOR 1254, Method: STANDARD PLATE): inactive; negative
mutagenic call (Test System: AMES SALMONELLA TYPHIMURIUM, Strain/Indicator: TA1538, Metabolic Activation: NONE, Method: STANDARD PLATE): inactive; negative
mutagenic call (Test System: AMES SALMONELLA TYPHIMURIUM, Strain/Indicator: TA1538, Metabolic Activation: RAT, LIVER, S-9, AROCLOR 1254, Method: STANDARD PLATE): inactive; negative
mutagenic call (Test System: MOUSE LYMPHOMA, Strain/Indicator: L5178Y (TK+/TK-), Metabolic Activation: NONE, Method: SUSPENSION/PLATE): inactive; negative. reevaluation of results: negative
mutagenic call (Test System: MOUSE LYMPHOMA, Strain/Indicator: L5178Y (TK+/TK-), Metabolic Activation: RAT, LIVER, S-9, AROCLOR 1254, Method: SUSPENSION/PLATE): inactive; negative. reevaluation of results: negative

O=C1CCCc2cc3c(cc21)cc([N+](=O)[O-])c1ccccc13
mutagenic call (Test System: AMES SALMONELLA TYPHIMURIUM, Strain/Indicator: TA98-1,8-DNP6, Metabolic Activation: NONE): active; positive
mutagenic call (Test System: AMES SALMONELLA TYPHIMURIUM, Strain/Indicator: TA98-1,8-DNP6, Metabolic Activation: S-9): inactive; negative
mutagenic call (Test System: AMES SALMONELLA TYPHIMURIUM, Strain/Indicator: TA98, Metabolic Activation: NONE): active; positive
mutagenic call (Test System: AMES SALMONELLA TYPHIMURIUM, Strain/Indicator: TA98, Metabolic Activation: S-9): active; positive
mutagenic call (Test System: AMES SALMONELLA TYPHIMURIUM, Strain/Indicator: TA98NR, Metabolic Activation: NONE): active; positive
mutagenic call (Test System: AMES SALMONELLA TYPHIMURIUM, Strain/Indicator: TA98NR, Metabolic Activation: S-9): active; positive
mutagenic call (Test System: AMES SALMONELLA TYPHIMURIUM, Strain/Indicator: TA100, Metabolic Activation: NONE): active; positive
mutagenic call (Test System: AMES SALMONELLA TYPHIMURIUM, Strain/Indicator: TA100, Metabolic Activation: S-9): active; positive
mutagenic call (Test System: AMES SALMONELLA TYPHIMURIUM, Strain/Indicator: TA100NR, Metabolic Activation: NONE): active; positive
mutagenic call (Test System: AMES SALMONELLA TYPHIMURIUM, Strain/Indicator: TA100NR, Metabolic Activation: S-9): active; positive

NC=O
mutagenic call (End Point: In vivo micronucleus, Test System: Peripheral blood erythrocytes, Species: Mouse, Strain/Sex: B6C3F1/ Male and Female, Route: Oral): inactive; negative
mutagenic call [1]: inactive; negative
mutagenic call [2]: inactive; negative
mutagenic call (Test System: AMES SALMONELLA TYPHIMURIUM, Strain/Indicator: TA98, Metabolic Activation: RAT LIVER S-9, PHENOBARBITAL AND BETA-NAPHTHOFLAVONE, Method: PREINCUBATION): inactive; negative
mutagenic call [3]: inactive; negative
mutagenic call [4]: inactive; negative
mutagenic call [5]: inactive; negative
mutagenic call (Test System: AMES SALMONELLA TYPHIMURIUM, Strain/Indicator: TA100, Metabolic Activation: RAT LIVER S-9, PHENOBARBITAL AND BETA-NAPHTHOFLAVONE, Method: PREINCUBATION): inactive; negative
mutagenic call [6]: inactive; negative
mutagenic call [7]: inactive; negative
mutagenic call [8]: inactive; negative
mutagenic call (Test System: AMES SALMONELLA TYPHIMURIUM, Strain/Indicator: TA1535, Metabolic Activation: RAT LIVER S-9, PHENOBARBITAL AND BETA-NAPHTHOFLAVONE, Method: PREINCUBATION): inactive; negative
mutagenic call [9]: inactive; negative
mutagenic call [10]: inactive; negative
mutagenic call [11]: inactive; negative
mutagenic call (Test System: AMES SALMONELLA TYPHIMURIUM, Strain/Indicator: TA1537, Metabolic Activation: RAT LIVER S-9, PHENOBARBITAL AND BETA-NAPHTHOFLAVONE, Method: PREINCUBATION): inactive; negative
mutagenic call [12]: inactive; negative
mutagenic call (Test System: Ames Salmonella typhimurium, Strain/Indicator: TA98, Metabolic Activation: None, Method: Preincubation): inactive; negative
mutagenic call (Test System: Ames Salmonella typhimurium, Strain/Indicator: TA98, Metabolic Activation: Rat, Liver, S-9, Aroclor 1254 (10%), Method: Preincubation): inactive; negative
mutagenic call (Test System: Ames Salmonella typhimurium, Strain/Indicator: TA100, Metabolic Activation: None, Method: Preincubation): inactive; negative
mutagenic call (Test System: Ames Salmonella typhimurium, Strain/Indicator: TA100, Metabolic Activation: Rat, Liver, S-9, Aroclor 1254 (10%), Method: Preincubation): inactive; negative
mutagenic call (Test System: E. coli, Strain/Indicator: WP urvA pKM101, Metabolic Activation: None, Method: Preincubation): inactive; negative
mutagenic call (Test System: E. coli, Strain/Indicator: WP urvA pKM101, Metabolic Activation: Rat, Liver, S-9, Aroclor 1254 (10%), Method: Preincubation): inactive; negative
mutagenic call (Test System: E.COLI, Strain/Indicator: WP2UVRA/PKM101, Metabolic Activation: NONE, Method: PREINCUBATION): inactive; negative
mutagenic call (Test System: E.COLI, Strain/Indicator: WP2UVRA/PKM101, Metabolic Activation: RAT LIVER S-9, PHENOBARBITAL AND BETA-NAPHTHOFLAVONE, Method: PREINCUBATION): inactive; negative
